37 molecules from patent US20240092758A1, “IMIDAZOLO INDAZOLE COMPOUNDS AS JAK INHIBITORS” (Theravance Biopharma R&D IP, LLC, priority 2021, published 2024) can be followed below.

In one test the target is JAK1 (Homo sapiens (Human), UniProt P23458). Nature of the test: Biochemical JAK kinase assay (LanthaScreen), JAK1. The following applies: for Ki: read-out: JAK1 pKi (converted). In a few lines: (§1)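 LanthaScreen format: phospho-STAT1 (pTyr701) detected with 2 nM Tb antibody after 10 mM EDTA quench. Kinase step used Km-level ATP and 200 nM STAT1 peptide, 1 h at ambient after 1 h pre-incubation. Inhibition fitted to IC50, reported as pKi.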
JAK1, sequence (P23458 whole entry): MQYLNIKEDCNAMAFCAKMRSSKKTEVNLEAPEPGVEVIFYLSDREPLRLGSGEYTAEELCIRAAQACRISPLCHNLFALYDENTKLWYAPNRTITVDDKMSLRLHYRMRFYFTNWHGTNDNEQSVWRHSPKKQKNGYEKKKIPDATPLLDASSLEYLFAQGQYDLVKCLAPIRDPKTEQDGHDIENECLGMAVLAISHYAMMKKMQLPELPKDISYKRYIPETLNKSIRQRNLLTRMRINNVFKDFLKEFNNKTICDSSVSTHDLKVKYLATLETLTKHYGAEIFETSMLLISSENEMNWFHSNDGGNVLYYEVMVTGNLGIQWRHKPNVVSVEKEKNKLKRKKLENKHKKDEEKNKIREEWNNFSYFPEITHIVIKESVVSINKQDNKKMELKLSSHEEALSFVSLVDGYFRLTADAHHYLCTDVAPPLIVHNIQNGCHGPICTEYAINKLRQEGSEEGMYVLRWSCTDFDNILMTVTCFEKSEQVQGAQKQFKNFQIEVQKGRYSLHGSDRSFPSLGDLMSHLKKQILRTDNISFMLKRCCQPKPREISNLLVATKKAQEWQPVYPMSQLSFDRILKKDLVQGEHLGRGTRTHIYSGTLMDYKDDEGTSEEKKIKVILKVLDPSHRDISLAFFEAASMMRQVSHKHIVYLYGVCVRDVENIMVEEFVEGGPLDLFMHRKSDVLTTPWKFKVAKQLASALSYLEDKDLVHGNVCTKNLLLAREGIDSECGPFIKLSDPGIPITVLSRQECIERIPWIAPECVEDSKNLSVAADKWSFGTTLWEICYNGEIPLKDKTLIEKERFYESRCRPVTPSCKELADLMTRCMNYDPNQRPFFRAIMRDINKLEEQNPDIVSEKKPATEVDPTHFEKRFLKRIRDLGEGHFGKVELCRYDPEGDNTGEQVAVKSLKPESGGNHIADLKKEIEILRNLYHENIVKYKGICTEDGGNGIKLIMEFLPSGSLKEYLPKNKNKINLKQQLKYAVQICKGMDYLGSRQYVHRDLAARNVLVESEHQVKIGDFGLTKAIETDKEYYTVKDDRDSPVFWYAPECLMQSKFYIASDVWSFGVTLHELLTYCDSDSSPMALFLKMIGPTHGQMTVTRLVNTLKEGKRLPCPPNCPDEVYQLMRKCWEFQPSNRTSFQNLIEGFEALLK
(In TR-FRET formats the signal depends on donor and acceptor labels being close together.)

For another test, the target named is JAK2 (Homo sapiens (Human), UniProt O60674). Nature of the test: Biochemical JAK kinase assay (LanthaScreen), JAK2. To be noted: for Ki: read-out: JAK2 pKi (converted). In a few lines: as §1
JAK2, sequence (O60674 whole entry): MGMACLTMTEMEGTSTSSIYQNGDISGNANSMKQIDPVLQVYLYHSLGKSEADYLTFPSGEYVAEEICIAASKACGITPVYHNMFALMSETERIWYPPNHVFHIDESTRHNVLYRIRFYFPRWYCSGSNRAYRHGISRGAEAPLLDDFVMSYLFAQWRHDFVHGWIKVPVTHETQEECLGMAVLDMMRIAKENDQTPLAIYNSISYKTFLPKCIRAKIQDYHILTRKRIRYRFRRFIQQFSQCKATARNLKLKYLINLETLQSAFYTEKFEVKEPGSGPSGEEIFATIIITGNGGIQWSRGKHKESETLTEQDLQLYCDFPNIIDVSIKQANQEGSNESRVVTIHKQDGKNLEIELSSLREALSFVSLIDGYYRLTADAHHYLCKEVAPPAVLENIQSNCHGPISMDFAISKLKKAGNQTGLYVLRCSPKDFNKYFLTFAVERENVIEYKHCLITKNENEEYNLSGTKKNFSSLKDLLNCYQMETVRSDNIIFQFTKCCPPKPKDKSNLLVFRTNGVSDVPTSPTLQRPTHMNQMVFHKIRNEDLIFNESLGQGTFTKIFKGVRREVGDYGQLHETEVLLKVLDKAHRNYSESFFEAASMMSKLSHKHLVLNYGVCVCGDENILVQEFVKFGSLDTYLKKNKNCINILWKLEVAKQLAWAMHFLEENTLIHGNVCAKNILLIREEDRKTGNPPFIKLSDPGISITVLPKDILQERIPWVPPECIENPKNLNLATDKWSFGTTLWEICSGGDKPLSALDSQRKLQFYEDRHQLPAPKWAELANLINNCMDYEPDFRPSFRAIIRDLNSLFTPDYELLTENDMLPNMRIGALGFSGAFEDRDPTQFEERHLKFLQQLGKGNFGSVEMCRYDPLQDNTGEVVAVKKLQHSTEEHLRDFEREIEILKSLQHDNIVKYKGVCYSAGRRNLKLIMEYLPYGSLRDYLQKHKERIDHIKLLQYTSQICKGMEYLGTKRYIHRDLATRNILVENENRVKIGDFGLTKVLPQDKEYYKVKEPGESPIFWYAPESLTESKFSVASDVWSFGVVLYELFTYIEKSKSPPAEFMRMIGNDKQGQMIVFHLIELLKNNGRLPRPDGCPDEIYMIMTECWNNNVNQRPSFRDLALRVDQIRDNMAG
Test [1] concerns IL-13 induced STAT6 phosphorylation in BEAS-2B human lung epithelial cells. Briefly: Cellular JAKI potency assay (BEAS-2B). Format: cell-based. The following applies: BEAS-2B cells; for IC50: Homo sapiens, BEAS-2B, read-out: BEAS2B pIC50 (converted). The method, boiled down: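 BEAS-2B cells were preincubated with compound (0.1% DMSO) in HBSS/HEPES/BSA for 1 h at 37 °C, then stimulated with IL-13 (80 ng/mL before addition) for 30 min. After lysis, pSTAT6 (Tyr641) was quantified by AlphaLISA SureFire; IC50 from a 4-parameter fit of percent inhibition, reported as pIC50.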

Molecules are shown by their SMILES.

With `CCc1cc(O)ccc1-c1ccc2c(-c3nc(C4=CCN([C@H]5CC[C@H](O)CC5)C4)c[nH]3)n[nH]c2c1` [Example 128], the “JAK1 pKi” value at JAK1 was “A (A represents a pKi value ≥10 (Ki≤0.1 nM))”. Further, on JAK2, the “JAK2 pKi” value is recorded as “A (A represents a pKi value ≥10 (Ki≤0.1 nM))”. Further, the IC50 in test [1] is 3.16 to 10 nM.
With `CCc1cc(O)ccc1-c1ccc2c(-c3nc(C4=CCN([C@H]5CC[C@@H](O)CC5)C4)c[nH]3)n[nH]c2c1F` [Example 129], on JAK1, the “JAK1 pKi” value is “A (A represents a pKi value ≥10 (Ki≤0.1 nM))”. For the same molecule, on JAK2, the “JAK2 pKi” value is “A (A represents a pKi value ≥10 (Ki≤0.1 nM))”. Also, the “BEAS2B pIC50” value in test [1] is “A (A represents a pIC50 value between 8 (included) and 8.5)”.
With `CCc1cc(O)ccc1-c1ccc2c(-c3nc(C4=CCN(Cc5ccccc5)CC4)c[nH]3)n[nH]c2c1` [Example 130], the Ki was 0.1 to 1 nM on JAK1 and 1 to 10 nM at JAK2. For the same molecule, the IC50 in test [1] was 31.6 to 100 nM.
Take `CCc1cc(O)ccc1-c1ccc2c(-c3nc(C4=CCN(Cc5cnc[nH]5)CC4)c[nH]3)n[nH]c2c1` [Example 131]: the “JAK1 pKi” value at JAK1 is “A (A represents a pKi value ≥10 (Ki≤0.1 nM))”. For the same molecule, the “JAK2 pKi” value on JAK2 is recorded as “A (A represents a pKi value ≥10 (Ki≤0.1 nM))”. In addition, the IC50 in test [1] is 10 to 31.6 nM.
Turning to `CCc1cc(O)ccc1-c1ccc2c(-c3nc(C4=CCN(Cc5cn[nH]c5)CC4)c[nH]3)n[nH]c2c1` [Example 132], on JAK1, the “JAK1 pKi” value is given as “A (A represents a pKi value ≥10 (Ki≤0.1 nM))”. The “JAK2 pKi” value at JAK2 was “A (A represents a pKi value ≥10 (Ki≤0.1 nM))”. Moreover, the IC50 in test [1] was 3.16 to 10 nM.
Turning to `CCc1cc(O)ccc1-c1ccc2c(-c3nc(C4=CCN(Cc5cnn[nH]5)CC4)c[nH]3)n[nH]c2c1` [Example 133], the Ki on JAK1 is 0.1 to 1 nM. Also, the “JAK2 pKi” value on JAK2 is on record as “A (A represents a pKi value ≥10 (Ki≤0.1 nM))”. Moreover, the IC50 in test [1] was 10 to 31.6 nM.
`CCc1cc(O)ccc1-c1ccc2c(-c3nc(C4=CCN(Cc5ccccc5)CC4)c[nH]3)n[nH]c2c1F` [Example 134]: the Ki on JAK1 and on JAK2 was 1 to 10 nM each time. In addition, in test [1], the IC50 was 100 to 316 nM.
`CCc1cc(O)ccc1-c1ccc2c(-c3nc(C4=CCN(CCc5ccccc5)CC4)c[nH]3)n[nH]c2c1F` [Example 135]: the Ki on JAK1 and at JAK2 was 1 to 10 nM each time. In test [1], the IC50 is 100 to 316 nM.
For the molecule `CCc1cc(O)ccc1-c1ccc2c(-c3nc(C4=CCN(Cc5cnc[nH]5)CC4)c[nH]3)n[nH]c2c1F` [Example 136], the Ki on JAK1 and at JAK2 was 0.1 to 1 nM each time. The IC50 in test [1] was 31.6 to 100 nM.
With `CCc1cc(O)ccc1-c1ccc2c(-c3nc(C4=CCN(Cc5ccn[nH]5)CC4)c[nH]3)n[nH]c2c1F` [Example 137], the Ki on JAK1 and at JAK2 was 0.1 to 1 nM throughout. In test [1], the IC50 was 10 to 31.6 nM.
With `CCc1cc(O)ccc1-c1ccc2c(-c3nc(C4=CCCN(Cc5ccccc5)C4)c[nH]3)n[nH]c2c1` [Example 138], the Ki on JAK1 and on JAK2 was 0.1 to 1 nM in each case. The IC50 in test [1] was 100 to 316 nM.
Take `CCc1cc(O)ccc1-c1ccc2c(-c3nc(C4=CCCN(CCc5ccccc5)C4)c[nH]3)n[nH]c2c1` [Example 139]: the Ki was 1 to 10 nM at JAK1 and 0.1 to 1 nM on JAK2. In test [1], the IC50 was 100 to 316 nM.
`CCc1cc(O)ccc1-c1ccc2c(-c3nc(C4=CCN(Cc5ccccc5)C4)c[nH]3)n[nH]c2c1` [Example 140]: the Ki on JAK1 and on JAK2 was 0.1 to 1 nM each time. For the same molecule, in test [1], the IC50 was 31.6 to 100 nM.
For `CCc1cc(O)ccc1-c1ccc2c(-c3nc(C4=CCN(CCc5ccccc5)C4)c[nH]3)n[nH]c2c1` [Example 141], the Ki at JAK1 and at JAK2 was 0.1 to 1 nM each time. In addition, the IC50 in test [1] is 100 to 316 nM.
On to `CCc1cc(O)ccc1-c1ccc2c(-c3nc(C4=CCN(Cc5cnc[nH]5)C4)c[nH]3)n[nH]c2c1` [Example 142], for which, on JAK1, the “JAK1 pKi” value is “A (A represents a pKi value ≥10 (Ki≤0.1 nM))”. For the same molecule, at JAK2, the “JAK2 pKi” value is recorded as “A (A represents a pKi value ≥10 (Ki≤0.1 nM))”. In addition, the IC50 in test [1] was 10 to 31.6 nM.
On to `CCc1cc(O)ccc1-c1ccc2c(-c3nc(C4=CCN(Cc5ccn[nH]5)C4)c[nH]3)n[nH]c2c1` [Example 143], for which the “JAK1 pKi” value at JAK1 is given as “A (A represents a pKi value ≥10 (Ki≤0.1 nM))”. Further, the “JAK2 pKi” value on JAK2 is “A (A represents a pKi value ≥10 (Ki≤0.1 nM))”. Besides, the IC50 in test [1] was 10 to 31.6 nM.
For `CCc1cc(O)ccc1-c1ccc2c(-c3nc(C4=CCN(Cc5c[nH]nn5)C4)c[nH]3)n[nH]c2c1` [Example 144], at JAK1, the “JAK1 pKi” value is “A (A represents a pKi value ≥10 (Ki≤0.1 nM))”. Moreover, the “JAK2 pKi” value on JAK2 was “A (A represents a pKi value ≥10 (Ki≤0.1 nM))”. The IC50 in test [1] is 10 to 31.6 nM.
Consider `CCc1cc(O)ccc1-c1ccc2c(-c3nc(C4=CCN(Cc5cn[nH]c5)C4)c[nH]3)n[nH]c2c1F` [Example 145], for which the “JAK1 pKi” value at JAK1 is “A (A represents a pKi value ≥10 (Ki≤0.1 nM))”. Besides, at JAK2, the “JAK2 pKi” value is “A (A represents a pKi value ≥10 (Ki≤0.1 nM))”. Further, the IC50 in test [1] is 10 to 31.6 nM.
`CCc1cc(O)ccc1-c1ccc2c(-c3nc(C4=CCN(Cc5c[nH]nn5)C4)c[nH]3)n[nH]c2c1F` [Example 146]: the Ki at JAK1 and on JAK2 was 0.1 to 1 nM throughout. Also, in test [1], the IC50 was 10 to 31.6 nM.
`CCc1cc(O)ccc1-c1ccc2c(-c3nc(C4=CCN(C(C)=O)CC4)c[nH]3)n[nH]c2c1` [Example 147]: the Ki at JAK1 and at JAK2 was 0.1 to 1 nM in each case. Besides, the IC50 in test [1] is 10 to 31.6 nM.
For `CCc1cc(O)ccc1-c1ccc2c(-c3nc(C4=CCN(S(C)(=O)=O)CC4)c[nH]3)n[nH]c2c1` [Example 148], the Ki at JAK1 and on JAK2 was 0.1 to 1 nM in each case. Besides, the IC50 in test [1] was 10 to 31.6 nM.
As for `CCc1cc(O)ccc1-c1ccc2c(-c3nc(C4=CCN(C(=O)OC)CC4)c[nH]3)n[nH]c2c1` [Example 149], the Ki at JAK1 and on JAK2 was 1 to 10 nM throughout. For the same molecule, the IC50 in test [1] is 31.6 to 100 nM.
For the molecule `CCc1cc(O)ccc1-c1ccc2c(-c3nc(C4=CCN(C(=O)NC)CC4)c[nH]3)n[nH]c2c1` [Example 150], the Ki on JAK1 and on JAK2 was 0.1 to 1 nM each time. Besides, in test [1], the IC50 was 10 to 31.6 nM.
Regarding `CCc1cc(O)ccc1-c1ccc2c(-c3nc(C4=CCN(C(=O)c5ccccc5)CC4)c[nH]3)n[nH]c2c1` [Example 151], the Ki at JAK1 and on JAK2 was 1 to 10 nM each time. In test [1], the IC50 is 31.6 to 100 nM.
On to `CCc1cc(O)ccc1-c1ccc2c(-c3nc(C4=CCN(C(C)=O)CC4)c[nH]3)n[nH]c2c1F` [Example 154], for which the Ki on JAK1 and at JAK2 was 0.1 to 1 nM each time. The IC50 in test [1] is 10 to 31.6 nM.
Take `CCc1cc(O)ccc1-c1ccc2c(-c3nc(C4=CCN(S(C)(=O)=O)CC4)c[nH]3)n[nH]c2c1F` [Example 155]: the Ki on JAK1 is 1 to 10 nM; on JAK2 it was 0.1 to 1 nM. Moreover, in test [1], the IC50 was 10 to 31.6 nM.
On the same counts, the results for `CCc1cc(O)ccc1-c1ccc2c(-c3nc(C4=CCN(C(=O)OC)CC4)c[nH]3)n[nH]c2c1F` [Example 156] are 1 to 10 nM, 0.1 to 1 nM and 31.6 to 100 nM.
`CCc1cc(O)ccc1-c1ccc2c(-c3nc(C4=CCCN(C(C)=O)C4)c[nH]3)n[nH]c2c1` [Example 159]: the Ki on JAK1 and at JAK2 was 0.1 to 1 nM throughout. In test [1], the IC50 is 10 to 31.6 nM.
For the molecule `CCc1cc(O)ccc1-c1ccc2c(-c3nc(C4=CCCN(S(C)(=O)=O)C4)c[nH]3)n[nH]c2c1` [Example 160], the Ki at JAK1 and on JAK2 was 0.1 to 1 nM throughout. For the same molecule, in test [1], the IC50 was 10 to 31.6 nM.
Regarding `CCc1cc(O)ccc1-c1ccc2c(-c3nc(C4=CCCN(C(=O)OC)C4)c[nH]3)n[nH]c2c1` [Example 161], the Ki on JAK1 was 0.1 to 1 nM; on JAK2 it was 1 to 10 nM. The IC50 in test [1] was 31.6 to 100 nM.
As for `CCc1cc(O)ccc1-c1ccc2c(-c3nc(C4=CCCN(C(=O)NC)C4)c[nH]3)n[nH]c2c1` [Example 162], the Ki on JAK1 and at JAK2 was 0.1 to 1 nM in each case. Moreover, the IC50 in test [1] is 31.6 to 100 nM.
Take `CCc1cc(O)ccc1-c1ccc2c(-c3nc(C4=CCCN(C(=O)c5ccccc5)C4)c[nH]3)n[nH]c2c1` [Example 163]: the Ki at JAK1 and at JAK2 was 1 to 10 nM each time. The IC50 in test [1] was 31.6 to 100 nM.
For `CCc1cc(O)ccc1-c1ccc2c(-c3nc(C4=CCCN(C(=O)CN)C4)c[nH]3)n[nH]c2c1` [Example 164], the Ki on JAK1 and at JAK2 was 0.1 to 1 nM each time. For the same molecule, the IC50 in test [1] was 10 to 31.6 nM.
Consider `CCc1cc(O)ccc1-c1ccc2c(-c3nc(C4=CCN(C(C)=O)C4)c[nH]3)n[nH]c2c1` [Example 166], for which the “JAK1 pKi” value at JAK1 is “A (A represents a pKi value ≥10 (Ki≤0.1 nM))”. Also, the “JAK2 pKi” value at JAK2 is listed as “A (A represents a pKi value ≥10 (Ki≤0.1 nM))”. Further, the IC50 in test [1] was 3.16 to 10 nM.
Regarding `CCc1cc(O)ccc1-c1ccc2c(-c3nc(C4=CCN(S(C)(=O)=O)C4)c[nH]3)n[nH]c2c1` [Example 167], the Ki at JAK1 is 0.1 to 1 nM; at JAK2, 1 to 10 nM. Besides, the IC50 in test [1] is 3.16 to 10 nM.
Regarding `CCc1cc(O)ccc1-c1ccc2c(-c3nc(C4=CCN(C(=O)OC)C4)c[nH]3)n[nH]c2c1` [Example 168], the Ki on JAK1 and on JAK2 was 0.1 to 1 nM each time. Also, the IC50 in test [1] was 10 to 31.6 nM.
Regarding `CCc1cc(O)ccc1-c1ccc2c(-c3nc(C4=CCN(C(=O)NC)C4)c[nH]3)n[nH]c2c1` [Example 169], the Ki at JAK1 was 0.1 to 1 nM. Further, the “JAK2 pKi” value on JAK2 is recorded as “A (A represents a pKi value ≥10 (Ki≤0.1 nM))”. Besides, in test [1], the IC50 was 31.6 to 100 nM.
